Results taken from patent US20080124385A1, “Methods for Transmembrane Treatment and Prevention of Otitis Media” (Piedmont Pharmaceuticals,LLC., priority 2004, published 2008).

System: Haemophilus influenzae
Assay: Chinchilla model of otitis media (middle ear inoculated with Haemophilus influenzae)
Assay type: in vivo, Chinchilla langer
Conditions: oral gavage, 20 mg/kg BID for 6 days; 3 animals/group; positive control
Description: To establish and evaluate the animal model, each chinchilla was inoculated with Haemophilus influenzae directly into the middle ear of each ear by transbullar injection at a concentration of 100 cfu in a volume of 0.2 mL. Each chinchilla was given an otoscope ear exam prior to being placed on study. Dosing with a composition of the invention or control oral amoxicillin began approximately 48 hours after the bacterial inoculation. All animals were administered Buprenorphine 0.05 mg/kg twice a day subcutaneously for analgesia for the duration of the study.
At the end of the dosing period (8 days after bacterial inoculation), each animal was euthanized, their ear canals washed with saline, and examined. In particular, samples from the middle ear from each chinchilla were collected. One ear sample was cultured overnight per laboratory procedures. Approximately 24 hours after the samples plated out, they were counted and the colony forming units (cfu) recorded.
The positive control article (amoxicillin) was administered orally by gavage to three chinchillas twice per day for 6 days, approximately 8 hours apart. 2, 4 or 6 drops of ofloxacin 0.3% liposome formulation or ciprofloxacin 0.3% liposome formulation were administered to two groups of three chinchillas each as a maximal feasible dose for these animals.

CC1(C)S[C@@H]2[C@H](NC(=O)[C@H](N)c3ccc(O)cc3)C(=O)N2[C@H]1C(=O)O [Amoxicillin, amoxicillin]
Active infection present after 6 days: No active infection present in any animal
